According to patent publication US4486415A, “Cyclic hexapeptide somatostatin analogs” (Merck & Co., Inc., priority 1983, dated 1984):
Square brackets hold non-standard residues; d marks the D form. Peptide text beside a SMILES is read from it. NMeF = CN[C@@H](Cc1ccccc1)C(=O)O; NMeK = CN[C@@H](CCCCN)C(=O)O; dNMeK = CN[C@H](CCCCN)C(=O)O

Key:
growth hormone = assay: in vitro test for the inhibition of growth hormone release, cultured rat pituitary cells; type: cell-based; details: multiples or fractions of the effect of somatostatin (=1), fiducial limits in parentheses, 4 hours incubation
Experimental: The instant cyclic hexapeptide analogs of somatostatin are tested and compared with the effects of somatostatin in an in vitro test for the inhibition of growth hormone. The test is described as follows:
"Rat pituitaries were isolated according to the procedures of Vale and Grant "In vitro Pituitary Hormone Secretion Assay for Hypophysiotropic Substances" in Methods in Enzymology, Vol. XXXVII, eds. O'Malley, B.W. and Hardman, J.G. (Academic Press, Inc., New York) pp. 5-93 (1975).
After 4 days in culture, the cells were washed and incubated for 4 hours in Dulbecco-modified Eagle's medium in the presence or absence of graded doses of each analog or somatostatin. The medium was then collected for subsequent growth hormone determinatin by a double antibody radioimmunoassay for rat growth hormone."

portal vein insulin = assay: decrease of portal vein insulin in anesthetized rats; type: in vivo, rat; details: multiples or fractions of the effect of somatostatin (=1), fiducial limits in parentheses, external jugular vein, portal blood after 5 minutes
Experimental: (§1) Analogs of somatostatin were compared to somatostatin in their ability to decrease the levels of portal vein glucagon and insulin in anesthetized rates. Male Sprague-Dawley rats (Charles River CD) weighing 160-200 g were anesthetized with urethane (150 mg/100 g of body weight; Aldrich). Saline or peptides were administered via the external jugular vein. After 5 minutes, the portal vein was exposed, and blood was collected via syringe containing 3 mg of EDTA and placed in chilled tubes containing 100 μl of Trasylol (FBA Pharmaceuticals) for subsequent hormone analysis. Plasma levels of glucagon were determined by the method of Faloona and Unger, Methods of Hormone Radioimmunoassay, Jaffe and Behrman (Eds), Academic Press, New York, Vol. II, pp. 257-527 (1976), utilizing glucagon antisera 30K obtained from R. Unger (Dallas, TX). Plasma levels of insulin were determined by a modification of the procedure of Herbert et al., J. Clin. Endocrinol. Metab., 25, 1375-1384 (1965).

portal vein glucagon = assay: decrease of portal vein glucagon in anesthetized rats; type: in vivo, rat; details: multiples or fractions of the effect of somatostatin (=1), fiducial limits in parentheses, external jugular vein, portal blood after 5 minutes
Experimental: as §1

[1] = tested on: pentagastrin evoked gastric secretion; assay: inhibition of pentagastrin evoked gastric secretion in the chronic fistula dog; type: in vivo; details: Dose 0.8 μg/ml./min., infusion 0-60 min., relative to placebo trial; for Gastric Secretion & Inhibition, Acid Concentration 0-30 / Gastric Secretion & Inhibition, Vol. 0-30: 0-30 min; for Gastric Secretion & Inhibition, Acid Concentration 30-60 / Gastric Secretion & Inhibition, Vol. 30-60: 30-60 min; for Gastric Secretion & Inhibition, Acid Concentration 60-90 / Gastric Secretion & Inhibition, Vol. 60-90: 60-90 min; for Gastric Secretion & Inhibition, Acid Concentration 90-120 / Gastric Secretion & Inhibition, Vol. 90-120: 90-120 min
Experimental: The effects of the instant cyclichexapeptide analogs of somatostatin are determined by the following procedure.
Compounds were tested for their ability to inhibit pentagastrin evoked gastric secretion in the chronic fistula dog. Female beagle dogs with a chronic gastric fistula were given pentagastrin (2.5 μg./kg./hour, i.v. from -60 to 120 min.) and gastric outputs were collected via the fistula cannula. Samples were analyzed at 30 minute intervals for volume (Ml.) and titratable acid (mEq/L) (Titration to pH 7 with 0.01N NaOH); total acid output (mEq) was calculated as the production of output volume and acid concentration. Test compounds were infused at a constant rate from 0 to 60 minutes. Data have been expressed as percent change of total acid output relative to a placebo trial in the same animals.

## C[C@@H](O)[C@@H]1NC(=O)[C@H](CCCCN)NC(=O)[C@@H](Cc2c[nH]c3ccccc23)NC(=O)[C@H](Cc2ccccc2)NC(=O)[C@@H]2CCCN2C(=O)[C@H](Cc2ccccc2)N(C)C1=O [Cyclo(D-Trp-Lys-Thr-N-Me-Phe-Pro-Phe)] (cyclo(F[dW]KT[NMeF]P))
Growth hormone
  Growth Hormone Release Inhibition: 0.53(0.34,0.82)
Portal vein insulin
  Insulin Inhibition: 1.1(0.6,1.7)
Portal vein glucagon
  Glucagon Inhibition: 2.0

## C[C@@H](O)[C@@H]1NC(=O)[C@H](CCCCN)N(C)C(=O)[C@H](Cc2c[nH]c3ccccc23)NC(=O)[C@H](Cc2ccccc2)NC(=O)[C@@H]2CCCN2C(=O)[C@H](Cc2ccccc2)NC1=O [Cyclo-(Pro-Phe-L-Trp-N-Me-Lys-Thr-Phe)] (cyclo(FPFW[NMeK]T))
Growth hormone
  Growth Hormone Release Inhibition: 0.1(0.09,0.2)
Portal vein insulin
  Insulin Inhibition: 0.3(0.1,0.7)
Portal vein glucagon
  Glucagon Inhibition: 0.2

## C[C@@H](O)[C@@H]1NC(=O)[C@@H](CCCCN)N(C)C(=O)[C@@H](Cc2c[nH]c3ccccc23)NC(=O)[C@H](Cc2ccccc2)NC(=O)[C@@H]2CCCN2C(=O)[C@H](Cc2ccccc2)NC1=O [Cyclo-(Pro-Phe-D-Trp-N-Me-D-Lys-Thr-Phe)] (cyclo(FPF[dW][dNMeK]T))
Growth hormone
  Growth Hormone Release Inhibition: 1.5(1.2,1.9)
Portal vein insulin
  Insulin Inhibition: 0.4(0.01,1.9)
Portal vein glucagon
  Glucagon Inhibition: 0.4
[1]
  Gastric Secretion & Inhibition, Acid Concentration 0-30: 44%
  Gastric Secretion & Inhibition, Vol. 0-30: 82%
  Gastric Secretion & Inhibition, Acid Concentration 30-60: 51%
  Gastric Secretion & Inhibition, Vol. 30-60: 89%
  Gastric Secretion & Inhibition, Acid Concentration 60-90: 6%
  Gastric Secretion & Inhibition, Vol. 60-90: 49%
  Gastric Secretion & Inhibition, Acid Concentration 90-120: 0%
  Gastric Secretion & Inhibition, Vol. 90-120: 60%

## C[C@@H](O)[C@@H]1NC(=O)[C@H](CCCCN)N(C)C(=O)[C@@H](Cc2c[nH]c3ccccc23)NC(=O)[C@H](Cc2ccccc2)NC(=O)[C@@H]2CCCN2C(=O)[C@H](Cc2ccccc2)NC1=O [Cyclo(D-Trp-N-Me-Lys-Thr-Phe-Pro-Phe)] (cyclo(FPF[dW][NMeK]T))
Growth hormone
  Growth Hormone Release Inhibition: 1.6(0.7,3.4)
Portal vein insulin
  Insulin Inhibition: 0.5(0.1,1.8)
Portal vein glucagon
  Glucagon Inhibition: Active
[1]
  Gastric Secretion & Inhibition, Acid Concentration 0-30: 9%
  Gastric Secretion & Inhibition, Vol. 0-30: 78%
  Gastric Secretion & Inhibition, Acid Concentration 30-60: 49%
  Gastric Secretion & Inhibition, Vol. 30-60: 82%
  Gastric Secretion & Inhibition, Acid Concentration 60-90: 43%
  Gastric Secretion & Inhibition, Vol. 60-90: 61%
  Gastric Secretion & Inhibition, Acid Concentration 90-120: 32%
  Gastric Secretion & Inhibition, Vol. 90-120: 60%

## C[C@@H](O)[C@@H]1NC(=O)[C@@H](CCCCN)N(C)C(=O)[C@H](Cc2c[nH]c3ccccc23)NC(=O)[C@H](Cc2ccccc2)NC(=O)[C@@H]2CCCN2C(=O)[C@H](Cc2ccccc2)NC1=O [Cyclo(Pro--Phe--L-Trp--D-N--Me--Lys--Thr--Phe)] (cyclo(FPFW[dNMeK]T))
Growth hormone
  Growth Hormone Release Inhibition: 0.05(0.04,0.07)
Portal vein insulin
  Insulin Inhibition: 0.07
